Results reported in ChEMBL document CHEMBL5038623, “Synthesis and bioactivities of new N-terminal dipeptide mimetics with aromatic amide moiety: Broad-spectrum antibacterial activity and high antineoplastic activity” (Eur J Med Chem, 2022).
In brackets after ≈: the same amount, converted by molar mass. Activity calls are given as the source filed them. No cut-off for these calls is given here.

Legend:
[1] = tested on: Escherichia coli; test: Antibacterial activity against Escherichia coli ATCC25922 assessed as zone of inhibition incubated for 12 hrs by disc diffusion method; type: functional, ATCC 25922
[2] = tested on: Staphylococcus aureus; test: Antibacterial activity against Staphylococcus aureus ATCC 6538 assessed as zone of inhibition incubated for 12 hrs by disc diffusion method; type: functional
[3] = tested on: L929; test: Cytotoxicity against mouse L929 cells assessed as reduction in cell viability at 31.5 to 125 ug/ml incubated for 24 hrs by MTT assay; type: toxicity, cell-based; settings: l929, 24 h, at 31.5 to 125 µg/mL, dose 31.5-125 µg/ml
[4] = tested on: Staphylococcus aureus; test: Antibacterial activity against methicillin-resistant Staphylococcus aureus ATCC 33591 assessed as MIC incubated for 12 hrs
[5] = tested on: L929; test: Cytotoxicity against mouse L929 cells assessed as reduction in cell viability at 1000 ug/ml incubated for 24 hrs by MTT assay; type: toxicity, cell-based; settings: l929, 24 h, at 1000 µg/mL
[6] = tested on: Escherichia coli; test: Bactericidal activity against Escherichia coli assessed as changes in cell morphology incubated for 3 hrs by SEM analysis; type: functional, organism-based
[7] = tested on: Escherichia coli; test: Antibiofilm activity against Escherichia coli at 320 ug/ml after 72 hrs by crystal violet staining based assay; type: functional; settings: dose 320 µg/ml
[8] = tested on: L929; test: Cytotoxicity against mouse L929 cells assessed as reduction in cell viability at 15.6 ug/ml incubated for 24 hrs by MTT assay; type: toxicity, cell-based; settings: l929, 24 h, dose 15.6 µg/ml
[9] = Hemolytic activity in rabbit RBC measured after 1 hrs by microplate reader assay; type: toxicity, cell-based, Oryctolagus cuniculus, Erythrocyte; settings: rabbit red blood cells (RBC)
[10] = tested on: Escherichia coli; test: Antibacterial activity against Escherichia coli assessed as fold change of bacterial growth inhibition incubated with 50% plasma (unknown origin); type: functional
[11] = tested on: Klebsiella pneumoniae; test: Antibacterial activity against Klebsiella pneumoniae ATCC 700603 assessed as reduction in microbial growth after 24 hrs by broth dilution method; type: functional
[12] = tested on: Staphylococcus aureus; test: Antibacterial activity against Staphylococcus aureus at sub-MIC measured treated over 16 serial passages after 24 hrs by resistance development assay; type: functional, organism-based
[13] = tested on: Escherichia coli; test: Antibacterial activity against Escherichia coli at sub-MIC treated over 16 serial passages measured after 24 hrs by resistance development assay; type: functional, organism-based
[14] = tested on: Staphylococcus aureus; test: Antibiofilm activity against Staphylococcus aureus at 80 ug/ml after 24 hrs by crystal violet staining based assay; type: functional; settings: dose 80 µg/ml
[15] = tested on: Escherichia coli; test: Antibiofilm activity against Escherichia coli at 160 ug/ml after 72 hrs by crystal violet staining based assay; type: functional; settings: dose 160 µg/ml
[16] = tested on: Staphylococcus aureus; test: Antibacterial activity against Staphylococcus aureus assessed as fold change of bacterial growth inhibition incubated with 50% plasma (unknown origin); type: functional
[17] = tested on: Staphylococcus aureus; test: Antibiofilm activity against Staphylococcus aureus at 160 ug/ml after 24 hrs by crystal violet staining based assay; type: functional; settings: dose 160 µg/ml
[18] = tested on: SGC-7901; test: Induction of apoptosis in human SGC-7901 cells assessed as apoptosis rate level at 50 ug/ml incubated for 24 hrs by annexin V-FITC/propidium iodide staining based flow cytometric analysis (reference value: 7.44%); type: functional; settings: dose 50 µg/ml
[19] = tested on: Escherichia coli; test: Antibiofilm activity against Escherichia coli at 40 ug/ml after 72 hrs by crystal violet staining based assay; type: functional; settings: dose 40 µg/ml
[20] = tested on: Staphylococcus aureus; test: Antibacterial activity against Staphylococcus aureus assessed as bacterial growth inhibition incubated with 50% serum (unknown origin); type: functional, organism-based
[21] = tested on: Escherichia coli; test: Antibiofilm activity against Escherichia coli at 20 ug/ml after 72 hrs by crystal violet staining based assay; type: functional; settings: dose 20 µg/ml
[22] = tested on: Escherichia coli; test: Bactericidal activity against Escherichia coli at 4MIC measured after 1 hrs by time-kill dilution assay relative to control; type: functional
[23] = tested on: Escherichia coli; test: Antibacterial activity against Escherichia coli assessed as bacterial growth inhibition incubated with 50% serum (unknown origin); type: functional, organism-based
[24] = tested on: Staphylococcus aureus; test: Antibacterial activity against Staphylococcus aureus incubated with 50% plasma (unknown origin) measured after 4 hrs; type: functional, organism-based
[25] = tested on: SGC-7901; test: Induction of apoptosis in human SGC-7901 cells assessed as apoptosis rate at 5 ug/ml incubated for 24 hrs by annexin V-FITC/propidium iodide staining based flow cytometric analysis (reference value: 7.44%); type: functional; settings: dose 5 µg/ml
[26] = tested on: Staphylococcus aureus; test: Antibacterial activity against Staphylococcus aureus incubated with 50% plasma (unknown origin) measured after 8 hrs; type: functional
[27] = tested on: SGC-7901; test: Induction of apoptosis in human SGC-7901 cells assessed as apoptosis rate at 25 ug/ml incubated for 24 hrs by annexin V-FITC/propidium iodide staining based flow cytometric analysis (reference value: 7.44%); type: functional; settings: dose 25 µg/ml
[28] = tested on: Staphylococcus aureus; test: Antibacterial activity against Staphylococcus aureus ATCC 6538 assessed as reduction in microbial growth after 24 hrs by broth dilution method; type: functional
[29] = tested on: Escherichia coli; test: Antibiofilm activity against Escherichia coli at 80 ug/ml after 72 hrs by crystal violet staining based assay; type: functional; settings: dose 80 µg/ml
[30] = tested on: Escherichia coli; test: Bactericidal activity against Escherichia coli measured after 7 hrs by time-kill dilution assay relative to control; type: functional, organism-based
[31] = tested on: SGC-7901; test: Cytotoxicity against human SGC-7901 cells assessed as reduction in cell viability after 24 hrs by MTT assay; type: functional, cell-based; settings: SGC-7901, 24 h
[32] = Selectivity index, HC50 for hemolytic activity in rabbit RBC to MIC for antibacterial activity against methicillin-resistant Staphylococcus aureus ATCC 33591; type: toxicity; settings: rabbit red blood cells (RBC), read-out: Selectivity Index
[33] = tested on: Staphylococcus aureus; test: Bactericidal activity against Staphylococcus aureus assessed as changes in cell morphology incubated for 3 hrs by SEM analysis; type: functional, organism-based
[34] = tested on: Escherichia coli; test: Antibacterial activity against Escherichia coli assessed as fold change of bacterial growth inhibition incubated with 50% blood (unknown origin); type: functional
[35] = tested on: Staphylococcus aureus; test: Antibiofilm activity against Staphylococcus aureus at 320 ug/ml after 24 hrs by crystal violet staining based assay; type: functional; settings: dose 320 µg/ml
[36] = tested on: Escherichia coli; test: Bactericidal activity against Escherichia coli at 2MIC measured after 1 hrs by time-kill dilution assay relative to control; type: functional
[37] = tested on: Staphylococcus aureus; test: Antibacterial activity against Staphylococcus aureus assessed as fold change of bacterial growth inhibition incubated with 50% blood (unknown origin); type: functional
[38] = tested on: Escherichia coli; test: Antibacterial activity against Escherichia coli ATCC25922 assessed as reduction in microbial growth after 24 hrs by broth dilution method; type: functional; settings: ATCC 25922

In the case of C#Cc1ccc(NC(=O)[C@@H](N)C(C)C)cc1, the “diameter of the inhibition zone (DIZ)” value [1] is reported as 20 mm, the “diameter of the inhibition zone (DIZ)” value [2] is reported as 21.8 mm and the Activity [3] is reported as 85%. For the same molecule, the MIC [4] was 5 µg/mL (≈ 23.1 µM), the Activity [5] was 70% and the Activity [6] was “Active”. For the same molecule, the Activity [7] was 93.5%, the Activity [8] was “Non-Toxic” and the HC50 at 1 h [9] was 891 µg/mL. For the same molecule, the “fold change (FC)” value [10] was 2, the MIC [11] was 5 µg/mL and the Activity [12] was “inactive”. For the same molecule, the Activity [13] was “inactive”, the Activity [14] was 77.5% and the Activity [15] was 81.5%. The “fold change (FC)” value [16] was 2, the Activity [17] was 85.4% and the Activity [18] was 50.36%. For the same molecule, the Activity [19] was 66.2%, the Activity [20] was “inactive” and the Activity [21] was 47.5%. For the same molecule, the Activity [22] was 0.4%, the Activity [23] was “inactive” and the Activity [24] was “Active”. The Activity [25] was 9.71%, the “fold change (FC)” value [26] was 2 and the Activity [27] was 11.46%. The MIC [28] was 2.5 µg/mL, the Activity [29] was 77.3% and the Activity [30] was “Active”. For the same molecule, the IC50 [31] was 70.8 µg/mL (≈ 327 µM), the selectivity ratio [32] was 356 and the Activity [33] was “Active”. The “fold change (FC)” value [34] was 4, the Activity [35] was 91% and the Activity [36] was 62.2%. The “fold change (FC)” value [37] was 4 and the MIC [38] was 5 µg/mL.
